Test results taken from EP0786471A1, “Arthrichitin, a process for its production and its use” (HOECHST AKTIENGESELLSCHAFT, priority 1996, dated 1997).

Legend:
Septoria nodorum = test: in vivo activity against phytopathogenic fungi
Plasmopara viticola = test: in vivo activity against phytopathogenic fungi
[1] = tested on: Pseudocercosporella herpotrichoides; test: in vivo activity against phytopathogenic fungi
Pyricularia oryzae = settings: in vivo
Erysiphe graminis = test: in vivo activity against phytopathogenic fungi
[2] = tested on: Neurospora crassa strain SGF 18; test: modified screening method of detecting cell-wall active compounds; format: cell-based
Experimental: Fermentation carried out for about 90 hours under submerged condition in shake flasks in order to achieve the maximum activity is particularly preferred. The progress of fermentation and the formation of Arthrichitin of the present invention can be detected by the modified screening method of detecting the cell-wall active compounds [J. Antibiotics, 39(11), 1620-1622, 1986] using the Neurospora crassa strain SGF 18.
The production of Arthrichitin was monitored by using the modified screening method of detecting cell-wall active compounds [J. Antibiot., 39 (11), 1620-22, 1986] using the Neurospora crassa strain SGF 18 and growing it in a medium containing the following nutrients : soluble starch 1.5%; Yeast extract 0.4%; K2HPO4 0.1 %; MgSO4.7H2O 0.05%; D-Sorbitol 7.5% (Osmotic stabilizer); L-Sorbose 2.5% (Glucan synthesis inhibitor) and agar 1.5%.

Botrytis cinerea = test: in vivo activity against phytopathogenic fungi
[3] = solubility (physico-chemical properties); format: physicochemical
Text: The physico-chemical properties of Arthrichitin are as follows : Appearance : Colorless solid Solubility : Soluble in methanol and dimethylsulfoxide; insoluble in petroleum ether, chloroform, ethylacetate and water. Molecular weight : 642 (FAB MS) (Matrix : 3-nitrobenzyl alcohol) Molecular formula : C33H46N4O9 (calculated : […]; [observed : m/z 643.3341 (M + H)^+ (HR FAB-MS; matrix : MeOH/NBA; internal reference : polyethylene glycol 600); calculated for C33H47N4O9 : 643.3345] Melting point : 245°C [α]D : + 24.12°C (c 0.475, MeOH) HPLC retention time : 5.4 minutes [4 x (30 + 100) mm 10µ ODS ®Hypersil column; mobile phase : 35% acetonitrile in 0.02 M aqueous sodium phosphate buffer, pH 7.0; flow rate : 1 ml/min.; UV detection : 220 nm] UV λmax (MeOH) : 247, 266, 310 nm; no shift with acid and alkali IR (KBr) : Figure 1 ^1H NMR (300 MHz, DMSO-d6) : Figure 2 ^13C NMR (75 MHz, DMSO-d6) : Figure 3

Phytophthora infestans = settings: in vivo

For `CCCCCCCCC(C)C1OC(=O)C(CO)NC(=O)C(C(=O)c2c[nH]c3ccccc23)NC(=O)C(CCC(=O)O)NC(=O)C1C` (centres unmarked) [Arthrichitin], the “activity against Septoria nodorum” value (Septoria nodorum) was “very good activity”, the “activity against Plasmopara viticola” value (Plasmopara viticola) was “very good activity” and the “activity against Pseudocercosporella herpotrichoides” value [1] was “very good activity”. For the same compound, the “activity against Pyricularia oryzae” value (Pyricularia oryzae) was “very good activity”, the “activity against Erysiphe graminis” value (Erysiphe graminis) was “very good activity” and the “activity as cell wall inhibiting compound” value [2] was “activity as cell wall inhibiting compound”. For the same compound, the “activity against Botrytis cinerea” value (Botrytis cinerea) was “very good activity”, the Solubility ([3]; chloroform) was “insoluble” and the Solubility ([3]; dimethylsulfoxide) was “Soluble”. The Solubility ([3]; ethylacetate) was “insoluble”, the Solubility ([3]; methanol) was “Soluble” and the Solubility ([3]; petroleum ether) was “insoluble”. The Solubility ([3]; water) was “insoluble” and the “activity against Phytophthora infestans” value (Phytophthora infestans) was “very good activity”.
